Two compounds from ChEMBL document CHEMBL1142769, “A preliminary study of the metabolic stability of a series of benzoxazinone derivatives as potent neuropeptide Y5 antagonists” (Bioorg Med Chem Lett, 2005) can be followed below.

The nature of data set [1]: Half life period after 1 hour in Rat liver microsomes at 37 degree C an incubation concentration of 10 uM.
The nature of data set [2]: Half life period after 1 hour in human liver microsomes at 37 degree C an incubation concentration of 10 uM.
The nature of data set [3]: Inhibitory concentration required for Metabolic stability after 1 hour at an incubation concentration of 10 uM. The class given is ADME.
Data set [4] is described as follows: Metabolic stability after 1 hour in human liver microsomes at 37 degree C an incubation concentration of 10 uM.
The nature of data set [5]: Metabolic stability after 1 hour in Rat liver microsomes at 37 degree C an incubation concentration of 10 uM.

For the compound `O=C(CN1CCC(N2C(=O)OCc3c(F)cccc32)CC1)Nc1ccc2[nH]c3ccccc3c2c1`, the values for the half-life at 1 h, 10 µM in data set [1] (liver microsomes) and in data set [2] (liver microsomes) were 19.3 min and 95 min, respectively. In data set [3], this compound displayed an IC50 of 461 nM.
As to `O=C(CN1CCC(N2C(=O)OCc3ccc(Cl)cc32)CC1)Nc1ccc2sc3ccccc3c2c1`, the amount remaining at 1 h, 10 µM in data set [4] was determined as 19.6%; in data set [5], 24%. In addition, the half-life at 1 h, 10 µM in data set [1] (microsomes) turned out to be 32.7 min; in data set [2] (microsomes), 28.4 min. Half-maximal inhibition in data set [3] (IC50) was put at 135 nM.
